Peptide text beside a SMILES is read from it.
Experiments:
[1] = tested on: eIF2-GTP-Met-tRNAi ternary complex; assay: Ternary complex activity (cell line not stated); format: cell-based
[2] = tested on: eIF2-GTP-Met-tRNAi ternary complex; assay: Ternary complex assay (dual luciferase, firefly/renilla ratio) in stable KLN-tTA/pBISA-DL(ATF-4) cells; HTS and hit confirmation; format: cell-based, mouse; details: anti-cancer agents at 20 μM, ternary complex assay
[3] = tested on: eIF2-GTP-Met-tRNAi ternary complex; assay: Ternary complex / ATF-4 dual luciferase assay in human cancer cell lines co-transfected with tTA and pBISA-DL(ATF-4) (CRL-2351, PC-3, CRL-2813); format: cell-based; details: CRL-2351 cell line
Description: FIGS. 8A-8D depict that N,N′-diarylureas reduce the availability of the eIF2-GTP-Met-tRNAi ternary complex in human cancer cells. A-C) PC-3, CR-L2351, and CRL-2813 human cancer cell lines were co-transfected with pBISA-DL^(ATF-4) and ptTA plasmids. One day post-transfection, the cells were treated with the indicated concentrations of N,N′-diarylureas. Firefly/renilla ratio was determined by DLR assay 8 hours after treatment. D) PC-3, CR-L2351, and CRL-2813 human cancer cell lines were treated with the indicated concentrations of N,N′-diarylureas four 8 hours, and expression of endogenous CHOP mRNA was determined by real-time PCR.
For example, reducing amount of the ternary complex increases translation of ATF-4, which results in elevated expression of CHOP mRNA and protein. Therefore, expression of endogenous CHOP mRNA and CHOP protein in KLN-tTA/pBISA-DL^(ATF-4) cells were utilized as secondary assays to validate N,N′-diarylurea compounds as modifiers of the eIF2⋅GTP⋅Met-tRNAi ternary complex. […] To rule out the possibility that the activity of N,N′-diarylurea compounds was confined to a single cell type, the effects of these compounds on the ternary complex assay and the expression of CHOP mRNA was assayed in CRL-2351, PC-3, CRL-2813 human breast, prostate, and melanoma cancer cell lines respectively. For the reporter gene assay, the three human cell lines were co-transfected with tTA expression vector and the pBISA-DL^(ATF-4) dual luciferase expression vector shown in FIG. 6. […] The expression of CHOP mRNA was assayed by real time PCR in the same cell lines treated with 5 or 20 μM of each compound. […]
Stable and transient transfection: Cells were seeded at the density of 10^5 in 60-mm (stable transfection) or 10^4 cells per well of 96-well plate (transient transfection) plates and transfected one day later using the Qiagen Transfectamine transfection kit. For selection of stable cell lines, transfected cells were transferred to 100-mm plates and selected with appropriate antibiotics.
Dual luciferase assay: Cells or minced tumors expressing firefly and renilla luciferases were lysed and the extracts assayed with a glow type dual luciferase assay kit, per manufacturer's instruction (Promega Inc., Madison, Wis.).

[4] = tested on: eIF2-GTP-Met-tRNAi ternary complex; assay: Ternary complex assay (dual luciferase, firefly/renilla ratio) in stable KLN-tTA/pBISA-DL(ATF-4) cells; HTS and hit confirmation; format: cell-based, mouse; parameters: Activity 10 uM / Activity 2.5 uM / Activity 5 uM: unit not given here; details: for Activity 5 uM: compound at 5 uM; for Activity 5 uM / Activity 10 uM: confirmed hits of the screen (Table 5); for Activity 10 uM: compound at 10 uM; for Effect on firefly/renilla luciferase ratio: KLN-tTA/pBISA-DL(ATF-4) colonies, assay validation

Compound | Relative F-luc/R-luc Ratio (+/− SEM) [2] | ATF-4 Cmax (concentration corresponding to the maximal activity) [3] [µM] | further results
CN(C(=O)Nc1cc(C(F)(F)F)cc(C(F)(F)F)c1)c1cc(C(F)(F)F)cc(C(F)(F)F)c1 |  |  | Maximum effect (Emax, fold over control) [1]: 13 fold over control; Maximum effective dose Cmax [1]: 10 µM
N=C(N)NC(=O)c1nc(Cl)c(N)nc1N [Amiloride] | 1.1 + 0.3 |  | 
Clc1ccccc1C(c1ccccc1)(c1ccccc1)n1ccnc1 [CLT, clotrimazole, reference compound] | 6 + 1.1 |  | 
CC[C@@]1(O)C(=O)OCc2c1cc1n(c2=O)Cc2cc3ccccc3nc2-1 [Camptothecin] | 1.3 + 0.3 |  | 
COc1cc2c(c(OC)c1OC)-c1ccc(OC)c(=O)cc1[C@@H](NC(C)=O)CC2 [Colchicine] | 1.2 + 0.3 |  | 
O=C(Nc1ccc(Cl)c(Cl)c1)Nc1ccc(Cl)c(Cl)c1 [Compound 1, 1,3-bis(3,4-dichlorophenyl)urea] |  | 5 | 
O=C(Nc1ccc(Cl)c(C(F)(F)F)c1)Nc1ccc(Cl)c(C(F)(F)F)c1 [Compound 2, 1,3-bis[4-chloro-3-(trifluoromethyl)phenyl]urea] |  | 2.4 | 
O=C(Nc1cc(C(F)(F)F)cc(C(F)(F)F)c1)Nc1cc(C(F)(F)F)cc(C(F)(F)F)c1 [Compound 3, 1,3-bis[3,5-bis(trifluoromethyl)phenyl]urea] |  | 2.5 | 
CC(C)Cn1c(=O)n(C)c(=O)c2[nH]cnc21 [Compound 3-isobutyl-1-methylxanthine] | 1.1 + 0.2 |  | 
Cc1ccc(NC(=O)Nc2ccc(Cl)c(Cl)c2)cc1O [Compound 4, 3-(3,4-dichlorophenyl)-1-(3-hydroxy-4-methylphenyl)urea] |  | 20 | 
Cc1ccc(NC(=O)Nc2ccc(Cl)c(C(F)(F)F)c2)cc1O [Compound 5, 3-[4-chloro-3-(trifluoromethyl)phenyl]-1-(3-hydroxy-4-methylphenyl)urea] |  | 10 | 
O=c1[nH]cc(F)c(=O)[nH]1 [Compound 5-fluorouracil, 5-fluorouracil] | 1 + 0.2 |  | 
Cc1ccc(NC(=O)Nc2cc(C(F)(F)F)cc(C(F)(F)F)c2)cc1O [Compound 6, 3-[3,5-bis(trifluoromethyl)phenyl]-1-(3-hydroxy-4-methylphenyl)urea] |  | 5 | 
COc1cc(NC(=O)Nc2ccc(Cl)c(C(F)(F)F)c2)ccc1C [Compound 8] |  | 10 | 
COc1cc(NC(=O)Nc2cc(C(F)(F)F)cc(C(F)(F)F)c2)ccc1C [Compound 9] |  | 20 | 
Cc1ccc(NC(=O)Nc2ccc(Cl)c(Cl)c2)cc1OCCN(C)C [Compound 11, 3-(3,4-dichlorophenyl)-1-{3-[2-(dimethylamino)ethoxy]-4-methylphenyl}urea] |  | 20 | 
Cc1ccc(NC(=O)Nc2ccc(Cl)c(C(F)(F)F)c2)cc1OCCN(C)C [Compound 12, 3-[4-chloro-3-(trifluoromethyl)phenyl]-1-{3-[2-(dimethylamino)ethoxy]-4-methylphenyl}urea] |  | 10 | 
Cc1ccc(NC(=O)Nc2cc(C(F)(F)F)cc(C(F)(F)F)c2)cc1OCCN(C)C [Compound 13, 3-[3,5-bis(trifluoromethyl)phenyl]-1-{3-[2-(dimethylamino)ethoxy]-4-methylphenyl}urea] |  | 10 | 
Cc1ccc(NC(=O)Nc2ccc(Cl)c(Cl)c2)cc1OCCN1CCOCC1 [Compound 15, 3-(3,4-dichlorophenyl)-1-{4-methyl-3-[2-(morpholin-4-yl)ethoxy]phenyl}urea] |  | 10 | 

Compound | Relative F-luc/R-luc Ratio (+/− SEM) [2] | ATF-4 Cmax (concentration corresponding to the maximal activity) [3] [µM] | further results
Cc1ccc(NC(=O)Nc2ccc(Cl)c(C(F)(F)F)c2)cc1OCCN1CCOCC1 [Compound 16, 3-[4-chloro-3-(trifluoromethyl)phenyl]-1-{4-methyl-3-[2-(morpholin-4-yl)ethoxy]phenyl}urea] |  | 10 | 
Cc1ccc(NC(=O)Nc2cc(C(F)(F)F)cc(C(F)(F)F)c2)cc1OCCN1CCOCC1 [Compound 17, 3-[3,5-bis(trifluoromethyl)phenyl]-1-{4-methyl-3-[2-(morpholin-4-yl)ethoxy]phenyl}urea] |  | 10 | 
Cc1ccc(NC(=O)Nc2ccc(Cl)c(Cl)c2)cc1OCCN1CCNCC1 [Compound 23, 4-[2-(5-{[(3,4-dichlorophenyl)carbamoyl]amino}-2-methylphenoxy)ethyl]piperazine-1,4-diium dichloride] |  | 10 | 
Cc1ccc(NC(=O)Nc2cc(C(F)(F)F)cc(C(F)(F)F)c2)cc1OCCN1CCNCC1 [Compound 25, 4-{2-[5-({[3,5-bis(trifluoromethyl)phenyl]carbamoyl}amino)-2-methylphenoxy]ethyl}piperazine-1,4-diium dichloride] |  | 10 | 
O=C(Nc1ccc(Cl)c(Cl)c1)Nc1ncccc1O [Compound 26] |  | 40 | 
O=C(Nc1ccc(Cl)c(C(F)(F)F)c1)Nc1ncccc1O [Compound 27] |  | 40 | 
FC(F)(Sc1ccccn1)c1nc2ccccc2o1 [Compound 691256] |  |  | Activity 5 uM [4]: 4.563; Activity 10 uM [4]: 5.7865
Cn1ccnc1SC(F)(F)c1nc2ccccc2o1 [Compound 691258] |  |  | Activity 5 uM [4]: 3.891; Activity 10 uM [4]: 3.904
O=[N+]([O-])c1cccc(-c2cn3c(n2)Cc2ccccc2C3)c1 [Compound 693037] |  |  | Activity 5 uM [4]: 6.794; Activity 10 uM [4]: 8.088
COc1ccc(N=[N+]([O-])c2ccc(OC)cc2)cc1 [Compound 694092] |  |  | Activity 5 uM [4]: 4.958; Activity 10 uM [4]: 5.898
COc1ccc([C@@H]2Sc3ccccc3N(CCN(C)C)C(=O)[C@@H]2OC(C)=O)cc1 [Dilthiazem] | 1.4 + 0.4 |  | 
CC(=O)O.NCC(=O)N[C@@H](Cc1c[nH]cn1)C(=O)O [Glycyl-1-histidyl acetate] (H-Gly-His-OH) | 1 + 0.1 |  | 
CO[C@@]12[C@H](COC(N)=O)C3=C(C(=O)C(C)=C(N)C3=O)N1C[C@@H]1N[C@@H]12 [Mitomycin C] | 0.9 + 0.3 |  | 
C=C1[C@@H](O)[C@@H]2O[C@]3(CC[C@H](/C=C/[C@@H](C)[C@@H]4CC(C)=C[C@@]5(O[C@H](C[C@@](C)(O)C(=O)O)CC[C@H]5O)O4)O3)CC[C@H]2O[C@@H]1[C@@H](O)C[C@H](C)[C@H]1O[C@@]2(CCCCO2)CC[C@H]1C [Okadaic acid] | 1 + 0.3 |  | 
CCCCCCCCCC(=O)NC(CN1CCOCC1)C(O)c1ccccc1 (stereo not drawn) [Threo-1-phenyl] | 1.5 + 0.4 |  | 
COc1cc([C@@H]2c3cc4c(cc3[C@@H](O[C@@H]3O[C@@H]5CO[C@@H](C)O[C@H]5[C@H](O)[C@H]3O)[C@H]3COC(=O)[C@H]23)OCO4)cc(OC)c1O [etoposite, reference compound] | 1 + 0.2 |  | Effect on firefly/renilla luciferase ratio [4]: no effect
CO[C@@]12[C@H](COC(N)=O)C3=C(C(=O)C(C)=C(N)C3=O)N1C[C@@H]1N[C@@H]12 [mitomycin, reference compound] |  |  | Effect on firefly/renilla luciferase ratio [4]: no effect
C/C=C(/C)C(=O)O[C@H]1C(C)=C2[C@H]([C@@H]1OC(=O)CCCCCCC)[C@@](C)(OC(C)=O)C[C@H](OC(=O)CCC)[C@@]1(O)[C@H]2OC(=O)[C@@]1(C)O [thapsigargin, reference compound] |  |  | Effect on firefly/renilla luciferase ratio [4]: increase in the ratio of firefly activity relative to renilla activity
tunicamycin [reference compound] |  |  | Effect on firefly/renilla luciferase ratio [4]: increase in the ratio of firefly activity relative to renilla activity
